By IC50 is commonly meant the concentration at which inhibition is half-maximal. Lower therefore signals greater potency in that assay.

The values that follow come from US20220259215A1, “PYRROLOPYRAZOLE DERIVATIVES, PREPARATION METHOD THEREOF AND APPLICATION THEREOF IN MEDICINE” (SHANGHAI MEDICILON INC., priority 2019, published 2022).

This assay has as its target T1, H+/K+ATPase (Oryctolagus cuniculus, UniProt P27112).
T1 construct: The stomach tissue of the rabbit was separated; from tissue; host or cells: rabbit stomach (fundus mucosa), membrane fraction obtained by differential and Ficoll centrifugation
The experiment in a line: Determination of compounds' inhibition of H+/K+ATPase enzyme activity (malachite green, OD 620 nm). The class given is biochemical. The note with it: H+/K+ATPase extracted from rabbit stomach mucosa; 500 μM ATP, pH 6.5, 37° C. An excerpt:
Test Example: Determination of Compounds' Inhibition of H+/K+ATPase Enzyme Activity
The following experiment is used to determine the inhibitory effect of the compound of the present invention on the H+/K+ATPase enzyme activity.
1. Experimental materials
Plate reader: SpectraMax M5(MD).
Malachite Green (Sigma Aldrich, 213020-25G).
Ammonium molybdate (Sigma Aldrich, 277908-20G).
ATP (Sigma Aldrich, A1852-1VL).
Enzyme working solution: titrating the enzyme, diluting the enzyme with buffer solution 1, and taking 5 μl of the diluted solution into 50 μl reaction system.
ATP solution: 100 mM ATP was diluted to 5 mM with no K+ buffer, and 5 μl of the diluted solution was added to the 50 μl reaction system, that is, the final concentration of ATP was 500 μM.
MLG color development liquid: 0.12% MLG, 7.5% ammonium molybdate, 11% Tween-20 was mixed as 100:25:2, and adding 15 μl of the mixture into each well during detection.
Buffer 1: 50 mM Tris-HCl pH 6.5, 5 mM magnesium chloride (magnesium chloride), 10 μM valinomycin (valinomycin).
Buffer 2: 50 mM Tris-HCl pH 6.5, 5 mM magnesium chloride (magnesium chloride), 10 μM valinomycin (valinomycin), 20 mM KCl.
Homogenization buffer: 10 mmol/L Tris-HCl, pH 6.8, 0.25M sucrose (sucrose), 1 mmol/LEDTA.
7.5% Ficoll layering solution: homogenization buffer+7.5% (W/W) (Ficoll 400).
3.1.H^+/K^+ATPase enzyme extraction
(1) The stomach tissue of the rabbit was separated, and the blood was washed with tap water, food residue.
(2) The fundus portion was thoroughly washed with pre-cooled NaCl solution to remove surface mucus.
(3) The stripped mucosa was filled into a sample bag or a 50 ml centrifuge tube, and quickly freezing in a liquid nitrogen tank.
(4) The tissue was removed, minced with surgical scissors, and a pre-cooled homogenization buffer (4 ml/g tissue) was added and homogenized in a tissue homogenizer for 2 to 10 minutes.
(5) After homogenization, if there were larger tissue particles, they could be removed by centrifugation (600 g, 10 min), and then the supernatant was transfered to a clean centrifuge tube. After centrifugation at 20000 g for 30 minutes, then the supernatant was transferred to a clean centrifuge tube at 100000 g for 90 minutes, and the precipitate was collected.
(6) Resuspending the precipitate with homogenization buffer, blowing uniformly, adding 7.5% Ficoll layering solution at equal ratio, centrifuging at 100000 g for 90 minutes, and collecting the precipitate.
(7) Resuspending the precipitate with homogenization buffer, blowing uniformly, and the protein concentration was measured by Bradford. Freezing in tubes at −80° C. for later use.
3.2. H+/K+ATPase activity experiment
(1) Adding 35 μl of reaction buffer to each experimental well, and then adding 35 μl of buffer 1.
(2) Adding 5 μl buffer 1 containing 10% DMSO to the whole enzyme and buffer well.
(3) Adding 5 μl of 10× compound working solution to the compound well and mixing well.
(4) Adding 5 μl of buffer 1 to the buffer well.
(5) Adding 5 μl of 10× enzyme working solution to the remaining wells, mixing and incubating at 37° C. for 30 minutes.
(6) Adding 5 μl of 10× ATP working solution to all experimental wells, mixing and incubating at 37° C. for 20 min.
(7) Adding 15 μl MLG chromogenic solution to all experimental wells, and uniformly mixing and incubating at room temperature for 5-30 min.
(8) The reading number of 620 nm was detected by an M5 instrument.
The inhibition rate is calculated with the following formula:
Inhibition rate (IC50)=[OD (sample well)-OD (full enzyme well containing potassium chloride)]/[(OD (full enzyme well containing potassium chloride)−(OD (full enzyme well without potassium chloride)]×100%

Molecules are shown by their SMILES.

T1 sequence (P27112 whole entry): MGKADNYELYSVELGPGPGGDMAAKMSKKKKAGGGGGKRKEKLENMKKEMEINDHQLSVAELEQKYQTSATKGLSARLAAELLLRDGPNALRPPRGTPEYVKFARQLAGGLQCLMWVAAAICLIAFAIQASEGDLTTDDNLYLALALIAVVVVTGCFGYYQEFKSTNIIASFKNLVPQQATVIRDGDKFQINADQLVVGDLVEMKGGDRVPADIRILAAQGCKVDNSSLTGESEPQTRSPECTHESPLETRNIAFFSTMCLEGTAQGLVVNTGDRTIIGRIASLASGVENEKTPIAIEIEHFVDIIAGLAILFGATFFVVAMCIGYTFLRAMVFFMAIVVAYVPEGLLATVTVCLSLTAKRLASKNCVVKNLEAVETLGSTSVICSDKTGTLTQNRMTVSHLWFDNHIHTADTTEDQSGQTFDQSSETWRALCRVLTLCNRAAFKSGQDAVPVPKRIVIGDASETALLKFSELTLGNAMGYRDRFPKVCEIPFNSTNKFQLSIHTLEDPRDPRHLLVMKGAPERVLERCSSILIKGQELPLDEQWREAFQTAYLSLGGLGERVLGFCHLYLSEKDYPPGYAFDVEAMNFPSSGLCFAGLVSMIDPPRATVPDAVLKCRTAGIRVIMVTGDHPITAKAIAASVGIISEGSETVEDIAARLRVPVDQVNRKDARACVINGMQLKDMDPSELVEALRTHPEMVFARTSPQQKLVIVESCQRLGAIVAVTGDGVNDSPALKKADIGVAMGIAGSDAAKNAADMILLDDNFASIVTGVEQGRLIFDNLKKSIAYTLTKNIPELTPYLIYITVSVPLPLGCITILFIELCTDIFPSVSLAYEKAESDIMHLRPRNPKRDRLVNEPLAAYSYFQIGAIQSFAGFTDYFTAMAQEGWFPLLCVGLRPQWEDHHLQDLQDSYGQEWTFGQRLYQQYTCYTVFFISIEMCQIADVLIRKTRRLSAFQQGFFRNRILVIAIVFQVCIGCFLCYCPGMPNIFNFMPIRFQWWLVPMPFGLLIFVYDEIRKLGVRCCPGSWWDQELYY
T1 sequence (P18597 whole entry partner): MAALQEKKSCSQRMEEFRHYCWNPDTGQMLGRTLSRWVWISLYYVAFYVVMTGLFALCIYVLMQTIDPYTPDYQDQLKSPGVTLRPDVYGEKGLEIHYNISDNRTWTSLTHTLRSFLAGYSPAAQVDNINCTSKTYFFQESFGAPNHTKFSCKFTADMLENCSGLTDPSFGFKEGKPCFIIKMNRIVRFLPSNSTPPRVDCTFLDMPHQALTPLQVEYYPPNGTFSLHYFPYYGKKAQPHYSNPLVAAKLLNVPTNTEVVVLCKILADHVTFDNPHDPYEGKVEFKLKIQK

Compound `COc1ccc(Nc2cccc(Cn3nc4c(c3-c3ccccc3F)CN(C)C4)c2)c(Cl)n1` [Example 1, 2-chloro-N-(3-((3-(2-fluorophenyl)-5-methyl-5,6-dihydropyrrolo[3,4-c]pyrazol-2(4H)-yl)methyl)phenyl)-6-methoxypyridin-3-amine] displayed an IC50 of 415 nM.

For the compound `Cc1ccc(Nc2cccc(Cn3nc4c(c3-c3ccccc3F)CN(C)C4)c2)c(Cl)n1` [Example 2, 2-chloro-N-(3-((3-(2-fluorophenyl)-5-methyl-5,6-dihydropyrrolo[3,4-c]pyrazol-2(4H)-yl)methyl)phenyl)-6-methylpyridin-3-amine], half-maximal inhibition (IC50) required 669 nM.

`CN1Cc2nn(Cc3cccc(Nc4ccnc(Cl)n4)c3)c(-c3ccccc3F)c2C1` [Example 3, 2-chloro-N-(3-((3-(2-fluorophenyl)-5-methyl-5,6-dihydropyrrolo[3,4-c]pyrazol-2(4H)-yl)methyl)phenyl) pyrimidin-4-amine]: the IC50 worked out at 966 nM.

As for `CN1Cc2nn(Cc3cccc(Nc4cc[nH]c(=O)n4)c3)c(-c3ccccc3F)c2C1` [Example 4, 4-((3-((3-(2-fluorophenyl)-5-methyl-5,6-dihydropyrrolo[3,4-c]pyrazol-2(4H)-yl)methyl)phenyl)amino)pyrimidin-2-(1H)-one], the midpoint of inhibition, the IC50, lay at 729 nM.

`CNc1nccc(Nc2cccc(Cn3nc4c(c3-c3ccccc3F)CN(C)C4)c2)n1` [Example 5, N4-(3-((3-(2-fluorophenyl)-5-methyl-5,6-dihydropyrrolo[3,4-c]pyrazol-2(4H)-yl)methyl)phenyl)-N2-methylpyrimidine-2,4-diamine] showed an IC50 of 279 nM.

`CN1Cc2nn(Cc3cccc(Nc4ccnc(N5CCOCC5)n4)c3)c(-c3ccccc3F)c2C1` [Example 6, N-(3-((3-(2-fluorophenyl)-5-methyl-5,6-dihydropyrrolo[3,4-c]pyrazol-2(4H)-yl)methyl)phenyl)-2-morpholinopyrimidin-4-amine] registered an IC50 of 2850 nM.

For `CN1Cc2nn(Cc3cccc(Nc4cncc(Cl)n4)c3)c(-c3ccccc3F)c2C1` [Example 7, 6-chloro-N-(3-((3-(2-fluorophenyl)-5-methyl-5,6-dihydropyrrolo[3,4-c]pyrazol-2(4H)-yl)methyl)phenyl)pyrazin-2-amine], it took 325 nM to reach half-maximal inhibition (IC50).
